Reference: US11953435B2, “Zinc-responsive fluorophores” (Northwestern University, priority 2019, dated 2024)
Entries after “also recorded” stand apart in the source; their conditions may differ.

Test: Metal ion response / selectivity of fluorescence
Conditions: for metal ions that inhibit the zinc response: other metal ions in the presence of excess zinc; for fluorescence response to toxic metals (Cd, Hg, Pb): relative fluorescence intensity; for metal ions to which the probe does not respond: relative fluorescence intensity in the presence of other metal ions
Procedure: Aqueous solutions were prepared by using de-ionized water with resistivity […], obtained using a Milli-Q water purification system. In order to properly compare the photophysical properties of ZincBY-2, ZincBY-3, and ZincBY-4 to ZincBY-1, the photophysical properties of ZincBY-1 we remeasured. […] Stock solutions of ZincBY-1, ZincBY-2, ZincBY-3, and ZincBY-4 were prepared at concentrations of 5 mM and stored at −20° C. in aliquots that were used immediately after thawing for each experiment. Unless otherwise stated, all spectroscopic methods were conducted in aqueous buffer containing 50 mM HEPES (pH 7.2) and 0.1 M KNO3. UV-visible spectra were acquired on a PerkinElmer Lambda 650 UV/Vis spectrophotometer using quartz cuvettes from Starna (1 cm path length, 10 cm path length used in extinction coefficient and quantum yield determination). Fluorescence spectra were acquired using a PerkinElmer LS 55 fluorescence spectrophotometer. For measurements containing zinc, 99.0% ZnNO3 hexahydrate (final concentration 5 μM) was used. For experiments analyzing apo probes, N,N,N′,N′-Tetrakis(2-pyridylmethyl)ethylenediamine (TPEN) (final concentration 5 μM) was added to solution. Quantum Yield and Extinction Coefficient Determination. Quantum yields for apo and holo ZincBY-1, ZincBY-2, ZincBY-3, and ZincBY-4 were determined by plotting absorbance vs. fluorescence intensity of solutions containing ZincBY-1, ZincBY-2, ZincBY-3, or ZincBY-4 at probe concentrations ranging from 50-250 nM. Serial dilution was used to make solutions at different concentrations. Fluorescein dissolved in 0.1 N NaOH was used as the quantum yield standard, using a literature-determined quantum yield of 0.95.^3 For all fluorophore solutions, fluorescence excitation was set at 490 nm and fluorescence emission was integrated from 510 nm to 650 nm. Zinc Dissociation Constant. Fluorescence spectra were recorded using zinc probes (ZincBY-1, ZincBY-2, ZincBY-3, or ZincBY-4; 200 nM) and ZnSO4 (various concentrations). The solutions were equilibrated in the dark for 1 h prior to measurement. The concentration of ZnSO4 was varied from 1 μM to 9 mM in buffer solution (50 mM HEPES and 0.1 M KNO3, and pH 7.2) containing 10 mM EGTA. Free Zn^2+ was calculated according to a previously reported method (Ref. B4; incorporated by reference in its entirety). Data was fit to the following one-site binding equation: F=(FminKd+Fmax[Zn^2+])/(Kd+[Zn^2+]) pH Response. The fluorescence spectra of zinc probes (ZincBY-2, ZincBY-3, or ZincBY-4; 200 nM) wasere measured at various pH values (4.5-11). The following buffers were used at 50 mM concentration with 0.1 M KNO3: NaOAc/AcOH (pH 4.0-4.5), MES (pH 5.0-6.5), HEPES (pH 7.0-8.0), CHES (pH 8.5-9.5), CAPS (pH 10.0-11.0). Metal Ion Response. The fluorescence spectra of zinc probes (ZincBY-2, ZincBY-3, or ZincBY-4; 200 nM) were measured in the presence an excess of metal ion including 1 mM KNO3, 1 mM NaNO3, 1 mM CaSO4, 1 mM MgSO4, 15 μM MnSO4, 15 μM (NH4)2Fe(SO4)2, 15 μM NH4Fe(SO4)2, 15 μM CoSO4, 15 μM NiSO4, 15 μM CuSO4, 15 μM [Cu(CH3CN)4]PF6, 15 μM CdSO4, 15 μM Hg(NO3)2, 15 μM Pb(NO3)2, or 15 μM ZnSO4. The fluorescence spectra were compared to that of ZincBY-2 (200 nM), ZincBY-3 (200 nM), or ZincBY-4 (200 nM) in the presence of 10 μM TPEN. Determination of octanol-water partition coefficients (log P). A log P value for each probe was determined by agitating nanomolar solutions of each probe in a 1:1 mixture of HEPES buffer and 1-octanol. Solutions were allowed to settle for 1 h and then the fluorescence intensity of each phase was measured. Standard curves of the fluorescence of known concentrations of probes in both solutions were used to determine concentrations.

Compound | preference for Zn(II) over other biologically relevant metal ions | metal ions that inhibit the zinc response | fluorescence response to toxic metals (Cd, Hg, Pb) | metal ions to which the probe does not respond
CC(=O)NCCOc1ccc2n1[B-](F)(F)[N+]1=C(N(CCN(Cc3ccccn3)Cc3ccccn3)Cc3ccccn3)C=CC1=C2c1c(C)cc(C)cc1C [ZincBY-4, N-(2-((7-((2-(bis(pyridin-2-ylmethyl)amino)ethyl)(pyridin-2-ylmethyl)amino)-5,5-difluoro-10-mesityl-5H-5λ4,6λ4-dipyrrolo[1,2-c:2′,1′-f][1,3,2]diazaborinin-3-yl)oxy)ethyl)acetamide] | responds preferentially to Zn(II) relative to other biologically relevant metal ions | does not fluoresce in the presence of Cu(II) or Hg, and these ions inhibit the zinc response; also recorded: Fe(II), Fe(III), and Co also seem to inhibit the zinc response | exhibits a fluorescence response to the toxic metals Cd, and Pb | does not respond to changes in K, Na, Ca, Mg, Mn, Ni, or Cu(I) concentration
COc1ccc2n1[B-](F)(F)[N+]1=C(N(CCN(Cc3ccccn3)Cc3ccccn3)Cc3ccccn3)C=CC1=C2c1c(C)cc(C)cc1C [ZincBY-1, reference compound] | responds preferentially to Zn(II) relative to other biologically relevant metal ions |  |  | 
Cc1cc(C)c(C2=C3C=CC(OCCN)=[N+]3[B-](F)(F)n3c2ccc3N(CCN(Cc2ccccn2)Cc2ccccn2)Cc2ccccn2)c(C)c1 [ZincBY-3, N1-(7-(2-aminoethoxy)-5,5-difluoro-10-mesityl-5H-4λ4,5λ4-dipyrrolo[1,2-c:2′,1′-f][1,3,2]diazaborinin-3-yl)-N1,N2,N2-tris(pyridin-2-ylmethyl)ethane-1,2-diamine] |  | does not fluoresce in the presence of Cu(I) or Cu(II), and these ions inhibit the zinc response; also recorded: Fe(II) and Fe(III) also seem to inhibit a zinc response | exhibits a fluorescence response to the toxic metals Cd, Hg, and Pb | does not respond to changes in K, Na, Ca, Mg, Mn, Co, or Ni concentration
Cc1cc(C)c(C2=C3C=CC(OCCN=[N+]=[N-])=[N+]3[B-](F)(F)n3c2ccc3N(CCN(Cc2ccccn2)Cc2ccccn2)Cc2ccccn2)c(C)c1 [ZincBY-2, N1-(7-(2-azidoethoxy)-5,5-difluoro-10-mesityl-5H-4λ4,5λ4-dipyrrolo[1,2-c:2′,1′-f][1,3,2]diazaborinin-3-yl)-N1,N2,N2-tris(pyridin-2-ylmethyl)ethane-1,2-diamine] |  | does not fluoresce in the presence of Cu(I) and Cu(II), and these ions inhibit the zinc response | exhibits an increase in fluorescence in response to toxic metals Cd and Hg, but does not respond to Pb | does not respond to changes in K, Na, Ca, Mg, Mn, Fe, Co, or Ni concentration
